# Data reported in US20260355182A1, “ISOQUINOLINE DERIVATIVE, SYNTHESIS METHOD THEREFOR, AND USE THEREOF” (Harbin Gloria Pharmaceuticals Co., Ltd., priority 2023, published 2026).
# Experiments:
# Pgk1 = target: T1, Pgk1 (Homo sapiens, UniProt P00558); assay: Affinity for Pgk1 protein (Biacore T200); format: binding; conditions: drug alone; amount of small-molecule drug bound
# T1 sequence (P00558 1-417): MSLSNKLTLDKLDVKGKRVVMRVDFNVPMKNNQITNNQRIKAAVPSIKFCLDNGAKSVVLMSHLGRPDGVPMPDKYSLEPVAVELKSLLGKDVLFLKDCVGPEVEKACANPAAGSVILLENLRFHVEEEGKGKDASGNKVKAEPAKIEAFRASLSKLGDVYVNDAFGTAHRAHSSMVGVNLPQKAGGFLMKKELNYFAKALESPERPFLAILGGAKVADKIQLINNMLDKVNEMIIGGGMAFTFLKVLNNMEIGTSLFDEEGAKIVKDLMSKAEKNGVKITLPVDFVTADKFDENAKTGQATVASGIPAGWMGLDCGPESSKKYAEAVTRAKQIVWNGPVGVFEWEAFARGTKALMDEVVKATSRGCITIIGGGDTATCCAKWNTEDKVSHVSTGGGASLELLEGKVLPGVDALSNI
# Experimental: Example 30: Determination of Affinities of Compounds for Pgk1 Protein
# Purified Pgk1 protein (with a concentration of 1 mg/mL) was immobilized on a Biacore T200 chip. […] The obtained curves can calculate parameters such as affinity and Rmax.
# [1] = system: MPTP-induced Parkinson's disease model mice; assay: MPTP-induced mouse model of Parkinson's disease, rotarod and tyrosine hydroxylase Western blot; format: in vivo
# Experimental: Male mice aged 3 months were used and fed normally. The acute MPTP modeling method (see Sonsalla P K, Heikkila R E. The influence of dose and dosing interval on MPTP-induced dopaminergic neurotoxicity in mice. Eur J Pharmacol 1986; 129(3): 339-45.) was employed. MPTP was injected intraperitoneally four times in total at a dose of 20 mg/kg body weight per injection, with a 2-hour interval between each injection. MPTP was dissolved in normal saline, and the control group received an equal dose of normal saline. T2 was dissolved in DMSO and diluted with normal saline to the desired concentration. Accordingly, equal doses of DMSO and normal saline were administered during the treatment. On the day of MPTP model establishment, mice were administered either T2 (treatment group) or DMSO (control group). Subsequently, mice in all groups were administered the corresponding drugs daily. Mouse behavior was tested using a rotarod (E103, UGO BASILE). First, mice were pre-trained for two consecutive days at a constant speed of 15 revolutions per minute (15 rpm) until they could stay on the rod for more than 60 seconds. On day 7 after MPTP injection, mice were tested on the rotarod in an accelerating mode (2 rpm to 45 rpm). The latency to fall from the rotarod was recorded, and the behavior was monitored by a camera. After the experiment, the mice were sacrificed, and the striatal brain tissue was harvested for Western blot assay. Tyrosine hydroxylase (TH) is a protein specifically expressed in dopaminergic neurons. Therefore, whether dopaminergic neurons were damaged can be determined by Western blot assay using an anti-TH antibody.
# SK-N-SH cells = assay: Effects of compounds on cellular ATP levels (Promega ATP assay); format: cell-based, human; conditions: 1 μM, 48 hours, 5% O2; untreated = 1
# Experimental: Effects of compounds on cellular ATP levels.
# Human Neuroblastoma Cell Line (SK-N-SH) is a human-derived neuroblastoma cell line. SK-N-SH cells were seeded in a 6-well plate at a density of 6×10^4 cells per well. The cells were cultured for 12 hours under 5% O2. Various drugs at a concentration of 1 μM were added. After 48 hours, the cells were harvested. Cellular ATP levels were measured using the Promega ATP assay kit. The experiment was repeated 6 times to 10 times. The experimental results were illustrated in FIG. 1. […] T1 to T11 were the experimental groups.
# [2] = system: phosphoglycerate kinase 1 (Pgk1); conditions: previous studies; cited from earlier work
# al adrenergic receptor = conditions: cited from earlier work
# patients = conditions: cited from earlier work
# glucose metabolism = conditions: human, in vivo; cited from earlier work
# diabetic patients = conditions: cited from earlier work
# db/db mice [3] = assay: Hypoglycemic effect in diabetic model db/db mice, intraperitoneal; format: in vivo; conditions: 0.6 mg/Kg i.p., 4 hours
# Experimental: Gene knockout db/db mice are a classic model of hyperglycemia and obesity. Under normal feeding conditions, mice aged 3 months or older developed hyperglycemia and obesity. After the mice were provided with only drinking water (fasted) for 6 hours, blood was collected from the tail of the mice to measure blood glucose values. Subsequently, different drugs, including saline (control), liraglutide at 0.6 mg/Kg, low-concentration T6 (T6 low, 0.1 mg/Kg), and high-concentration T6 (T6 high, 0.5 mg/Kg), were injected intraperitoneally. 4 hours later, blood was collected from the tail of the mice to measure the blood glucose levels. Each group consisted of 6 mice. Blood glucose levels before administration (Vbefore) and after administration (Vafter) were obtained for each mouse. The effect of the drug on blood glucose (%) was calculated as follows:
# (Vbefore−Vafter)×100/Vbefore.
# db/db mice [4] = assay: Acute glucose-response assay in non-fasted db/db mice; format: in vivo; conditions: s.c., 2 h; TZ 0.5, liraglutide 0.6, T6 0.5 mg/Kg
# Experimental: The db/db mice were used to evaluate the glucose-lowering activity of compound T6 in comparison with reference metabolic agents (TZ 0.5 mg/Kg, liraglutide 0.6 mg/Kg, T6 0.5 mg/Kg). In FIG. 15, A) for the acute glucose-response assay, drugs were administered to non-fasted db/db mice. Immediately after drug administration (s. c.), mice were deprived of food and water, and blood glucose levels were measured from tail blood samples 2 h later. The relative percentage change in blood glucose was calculated by comparing glucose levels before and after treatment in the same animal. […] HbA1c levels were then measured using a glycated hemoglobin A1c enzyme-linked immunosorbent assay, also referred to as a mouse HbA1c ELISA assay. […] Data are presented as mean±error bars, with individual circles representing individual animals. Statistical significance is indicated as P<0.001 (**) and P<0.0001 (***).
# rats = conditions: combined administration of terazosin and propranolol; cited from earlier work
# [5] = system: Parkinson's disease and related diseases; conditions: long-term use; cited from earlier work
compound,measurement,setting,value
"Nc1ncnc2c1ncn2[C@@H]1O[C@H](COP(=O)(O)OP(=O)(O)O)[C@@H](O)[C@H]1O [ADP, reference compound]",Rmax,Pgk1,35 RU
Nc1nc(N2CCN(C(=O)[C@H]3CCCO3)CC2)cc2cc3c(cc12)OCO3 [Compound T1],Rmax,Pgk1,116 RU
Nc1nc(N2CCN(C(=O)[C@@H]3CCCO3)CC2)cc2cc3c(cc12)OCO3 [Compound T2],Rmax,Pgk1,122 RU
same,Tyrosine hydroxylase level / dopaminergic neurons,"[1]; T2 0.1 mg/Kg, striatum, Western blot",exerted a protective effect on dopaminergic neurons
same,Motor ability (rotarod),"[1]; T2 0.1, 0.3 and 1 mg/Kg, day 7 after MPTP",exerted protective effects
CC1Oc2cc3cc(N4CCN(C(=O)[C@H]5CCCO5)CC4)nc(N)c3cc2O1 (stereo partly drawn) [Compound T3],Rmax,Pgk1,93 RU
CC1(C)Oc2cc3cc(N4CCN(C(=O)[C@H]5CCCO5)CC4)nc(N)c3cc2O1 [Compound T4],Rmax,Pgk1,75 RU
Nc1nc(N2CCN(C(=O)[C@H]3CCCO3)CC2)cc2cc3c(cc12)CCO3 [Compound T5],Rmax,Pgk1,86 RU
Nc1nc(N2CCN(C(=O)C3CCCC3)CC2)cc2cc3c(cc12)OCO3 [Compound T7],Rmax,Pgk1,159 RU
Nc1nc(N2CCN(C(=O)[C@H]3CCCN3)CC2)cc2cc3c(cc12)OCO3 [Compound T8],Rmax,Pgk1,87 RU
Nc1nc(N2CCN(C(=O)[C@@H]3CCCN3)CC2)cc2cc3c(cc12)OCO3 [Compound T9],Rmax,Pgk1,87 RU
Nc1nc(N2CCN(C(=O)[C@H]3CCCO3)CC2)cc2cc3c(cc12)OCCO3 [Compound T10],Activity in increasing cellular ATP,SK-N-SH cells,no such activity of increasing cellular ATP
same,Rmax,Pgk1,None
Nc1nc(N2CCN(C(=O)c3ccco3)CC2)cc2cc3c(cc12)OCO3 [Compound T11],Activity in increasing cellular ATP,SK-N-SH cells,no such activity of increasing cellular ATP
same,Rmax,Pgk1,None
COc1cc2cc(N3CCN(C(=O)C4CCCO4)CC3)nc(N)c2cc1OC (stereo not drawn) [TZ-md],Binding to / activation of Pgk1,[2],still retains the effect of activating Pgk1
same,Inhibition of the al adrenergic receptor,al adrenergic receptor,does not inhibit the al adrenergic receptor
same,Reduction of affinity for the al adrenergic receptor,"al adrenergic receptor; substitution of quinazoline nitrogen by carbon, vs terazosin",more than 1000 fold
COc1cc2nc(N(C)CCCNC(=O)C3CCCO3)nc(N)c2cc1OC (stereo not drawn) [alfuzosin],Side effects,patients,"intraoperative floppy iris syndrome (IFIS), hypotension, fatigue, dizziness, syncope, and blurred vision"
COC1=C(OC)C(=O)C(C/C=C(\C)CC/C=C(\C)CC/C=C(\C)CC/C=C(\C)CC/C=C(\C)CC/C=C(\C)CC/C=C(\C)CC/C=C(\C)CC/C=C(\C)CCC=C(C)C)=C(C)C1=O [coenzyme Q10],Clinical efficacy on glucose metabolism,glucose metabolism,either no effect or clinical efficacy in only a small subset of the population
CN(CC(=O)O)C(=N)N [creatine],Clinical efficacy on glucose metabolism,glucose metabolism,either no effect or clinical efficacy in only a small subset of the population
COc1cc2nc(N3CCN(C(=O)C4COc5ccccc5O4)CC3)nc(N)c2cc1OC (stereo not drawn) [doxazosin],Blood glucose and lipid levels,diabetic patients,efficacy is extremely limited or ineffective
same,Side effects,patients,"intraoperative floppy iris syndrome (IFIS), hypotension, fatigue, dizziness, syncope, and blurred vision"
"CCCCCCCCCCCCCCCC(=O)N[C@@H](CCC(=O)NCCCC[C@H](NC(=O)[C@H](C)NC(=O)[C@H](C)NC(=O)[C@H](CCC(N)=O)NC(=O)CNC(=O)[C@H](CCC(=O)O)NC(=O)[C@H](CC(C)C)NC(=O)[C@H](Cc1ccc(O)cc1)NC(=O)[C@H](CO)NC(=O)[C@H](CO)NC(=O)[C@@H](NC(=O)[C@H](CC(=O)O)NC(=O)[C@H](CO)NC(=O)[C@@H](NC(=O)[C@H](Cc1ccccc1)NC(=O)[C@@H](NC(=O)CNC(=O)[C@H](CCC(=O)O)NC(=O)[C@H](C)NC(=O)[C@@H](N)Cc1cnc[nH]1)[C@@H](C)O)[C@@H](C)O)C(C)C)C(=O)N[C@@H](CCC(=O)O)C(=O)N[C@@H](Cc1ccccc1)C(=O)N[C@H](C(=O)N[C@@H](C)C(=O)N[C@@H](Cc1c[nH]c2ccccc12)C(=O)N[C@@H](CC(C)C)C(=O)N[C@H](C(=O)N[C@@H](CCCNC(=N)N)C(=O)NCC(=O)N[C@@H](CCCNC(=N)N)C(=O)NCC(=O)O)C(C)C)[C@@H](C)CC)C(=O)O [liraglutide, reference compound]",Hypoglycemic effect (liraglutide),db/db mice [3],optimal hypoglycemic effect
same,Acute change in blood glucose,db/db mice [4],marked reduction in blood glucose
"CN(C)C(=N)N=C(N)N [metformin, reference compound]",Clinical efficacy on glucose metabolism,glucose metabolism,either no effect or clinical efficacy in only a small subset of the population
CC(C)NCC(O)COc1cccc2ccccc12 (stereo not drawn) [propranolol],Blood glucose in rats,rats,did not affect blood glucose in rats
"CO[C@H]1C[C@@H]2CC[C@@H](C)[C@@](O)(O2)C(=O)C(=O)N2CCCC[C@H]2C(=O)O[C@H]([C@H](C)C[C@@H]2CC[C@@H](O)[C@H](OC)C2)CC(=O)[C@H](C)/C=C(\C)[C@@H](O)[C@@H](OC)C(=O)[C@H](C)C[C@H](C)/C=C/C=C/C=C/1C [rapamycin, reference compound]",Clinical efficacy on glucose metabolism,glucose metabolism,either no effect or clinical efficacy in only a small subset of the population
"Oc1ccc(C=Cc2cc(O)cc(O)c2)cc1 [resveratrol, reference compound]",Clinical efficacy on glucose metabolism,glucose metabolism,either no effect or clinical efficacy in only a small subset of the population
CCOc1ccccc1OCCN[C@H](C)Cc1ccc(OC)c(S(N)(=O)=O)c1 [tamsulosin],Effect on incidence of Parkinson's disease and related diseases,[5],do not exhibit similar effects
same,Side effects,patients,"intraoperative floppy iris syndrome (IFIS), hypotension, fatigue, dizziness, syncope, and blurred vision"
O=C(O)c1cccnc1 [vitamin B3],Clinical efficacy on glucose metabolism,glucose metabolism,either no effect or clinical efficacy in only a small subset of the population
insulin,Clinical efficacy on glucose metabolism,glucose metabolism,either no effect or clinical efficacy in only a small subset of the population
